Eight compounds from ChEMBL document CHEMBL1201862, “PubChem BioAssay data set” (2004) can be followed below.

Some test systems named below: HOP-92; HCC 2998; SK-MEL-28; SK-OV-3; OVCAR-3; K562; UO-31; Malme-3M; SF-539; SF-295; M14; NCI-H226; OVCAR-8; OVCAR-4; HT-29; SNB-75; SK-MEL-5; TK-10; OVCAR-5; HL-60.
Common to all, as to experiment: growth of human tumour cells (NCI), 48 h

Molecules are shown by their SMILES.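 Protocol summary: plate cells (96-well), add compound at 5 concentrations, incubate 48 h, interpolate endpoints linearly. The concentration for 50% growth inhibition is given as GI50.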 The source made the active and inactive calls. No stated cut-off is given here; in the data, active = GI50 up to about 1.1 µM and inactive = higher.

`Nc1nc(CCC(=O)Nc2cccc(C(F)(F)F)c2)cc(-c2ccc3ccccc3c2)n1`: the GI50 in the experiment on HOP-92, in the experiment on HCC 2998, in the experiment with SK-MEL-28, with SK-OV-3, in the experiment with OVCAR-3 and in the experiment with K562 was > 100 µM (inactive) in each case. Further, the GI50 in the experiment on UO-31, with Malme-3M, with SF-539, in the experiment with SF-295, in the experiment on M14 and in the experiment with NCI-H226 was > 100 µM (inactive) in each case. The GI50 with OVCAR-8, with OVCAR-4, in the experiment on HT-29, with SNB-75, in the experiment with SK-MEL-5 and in the experiment on TK-10 was > 100 µM (inactive) each time. Also, the GI50 with OVCAR-5 and with HL-60 was > 100 µM (inactive) each time.
On to `CC1=CC(C)C(C)N(CC2=NCCN2)c2ccccc21` (centres undefined), for which the GI50 with HOP-92 is 11 µM (inactive); with HCC 2998, 17.9 µM (inactive); with SK-MEL-28, 18.7 µM (inactive); in the experiment on SK-OV-3 it was 96.8 µM (inactive); in the experiment with OVCAR-3, 56.8 µM (inactive); in the experiment with K562, 36.9 µM (inactive). The GI50 in the experiment with UO-31 is 47.3 µM (inactive); with Malme-3M it was 21.4 µM (inactive); with SF-539 it was 62.1 µM (inactive); in the experiment on SF-295 it was 67.3 µM (inactive); in the experiment on M14, 17.8 µM (inactive); in the experiment on NCI-H226, 68.1 µM (inactive). Further, the GI50 with OVCAR-8 is > 80.9 µM (inactive); with OVCAR-4, > 100 µM (inactive); in the experiment on HT-29 it was 18.7 µM (inactive); in the experiment with SNB-75, 46 µM (inactive); in the experiment on SK-MEL-5, 20.1 µM (inactive); in the experiment on TK-10, 54.2 µM (inactive). Besides, the GI50 in the experiment with OVCAR-5 was > 57.7 µM (inactive); in the experiment with HL-60, > 47 µM (inactive).
With `CC(=O)c1c2c(cc3c1CC1(Cc4cc5c(cc4C1)C(=O)CCC5)C3)CCCC2` (centres undefined), the GI50 in the experiment with HOP-92 is 2.55 µM (inactive); in the experiment with HCC 2998, 12.5 µM (inactive); in the experiment with SK-MEL-28 it was 7.38 µM (inactive); in the experiment on SK-OV-3 it was > 54.8 µM (inactive); in the experiment with OVCAR-3, 7.59 µM (inactive); with K562, 1.76 µM (inactive). For the same compound, the GI50 with UO-31 was 9.4 µM (inactive); with Malme-3M, 6.64 µM (inactive); with SF-539, 4.17 µM (inactive); in the experiment on SF-295, 8.24 µM (inactive); with M14, 7.8 µM (inactive); in the experiment on NCI-H226, 3.5 µM (inactive). In addition, the GI50 is 13.9 µM (inactive) with OVCAR-8; 5.83 µM (inactive) in the experiment with OVCAR-4; 3.25 µM (inactive) in the experiment with HT-29; 2.92 µM (inactive) in the experiment with SNB-75; 2.21 µM (inactive) in the experiment with SK-MEL-5; 16.5 µM (inactive) in the experiment with TK-10. Also, the GI50 with OVCAR-5 was 35.2 µM (inactive); in the experiment on HL-60 it was 1.82 µM (inactive).
In the case of `Cn1c2ccc([N+](=O)[O-])cc2c(=O)n1Cc1ccccc1F`, the GI50 in the experiment with HOP-92 is 27.7 µM (inactive); in the experiment on HCC 2998 it was 70.8 µM (inactive); in the experiment on SK-MEL-28 it was 47.5 µM (inactive); with SK-OV-3, > 100 µM (inactive); in the experiment on OVCAR-3, 40.8 µM (inactive); with K562, 38.5 µM (inactive). The GI50 in the experiment with UO-31 was 37.9 µM (inactive); in the experiment with Malme-3M, 46.8 µM (inactive); with SF-539, 25.2 µM (inactive); in the experiment with SF-295, 54.1 µM (inactive); with M14 it was 25.4 µM (inactive); in the experiment on NCI-H226, 29.4 µM (inactive). Besides, the GI50 with OVCAR-8 is 28.6 µM (inactive); in the experiment with OVCAR-4, 47.8 µM (inactive); with HT-29, 54.7 µM (inactive); in the experiment on SNB-75, 20.9 µM (inactive); in the experiment on SK-MEL-5 it was 38.3 µM (inactive); in the experiment on TK-10, 34 µM (inactive). In addition, the GI50 in the experiment with OVCAR-5 was 46.3 µM (inactive); in the experiment on HL-60 it was 64.4 µM (inactive).
On to `Cc1cc(C(=O)NCCN(C)C)c2nc3ccccc3cc2c1`, for which the GI50 in the experiment with HOP-92 was 1.45 µM (inactive); with HCC 2998 it was 3.67 µM (inactive); with SK-MEL-28 it was 3.15 µM (inactive); in the experiment on SK-OV-3, 2.16 µM (inactive); with OVCAR-3, 2.38 µM (inactive); with K562, 2.44 µM (inactive). For the same compound, the GI50 was 1.42 µM (inactive) with UO-31; 1.6 µM (inactive) with Malme-3M; 3.76 µM (inactive) in the experiment on SF-539; 1.27 µM (inactive) with SF-295; 1.17 µM (inactive) in the experiment with NCI-H226; 1.25 µM (inactive) in the experiment on OVCAR-8. For the same compound, the GI50 in the experiment on OVCAR-4 is 3.02 µM (inactive); with HT-29 it was 1.13 µM (inactive); with SNB-75 it was 3.13 µM (inactive); in the experiment with SK-MEL-5, 1.64 µM (inactive); in the experiment with OVCAR-5, 1.98 µM (inactive); in the experiment on HL-60, 0.871 µM (active).
In the case of `COC1(OC)CCC2C1C1CCC(OC)(OC)C21` (centres undefined), the GI50 in the experiment with HOP-92, in the experiment with HCC 2998, in the experiment with SK-MEL-28, in the experiment on SK-OV-3, in the experiment on OVCAR-3 and in the experiment on K562 was > 50 µM (inactive) each time. Moreover, the GI50 in the experiment on UO-31, in the experiment on Malme-3M, with SF-539, in the experiment on SF-295, in the experiment on M14 and with NCI-H226 was > 50 µM (inactive) throughout. For the same compound, the GI50 in the experiment with OVCAR-8, in the experiment with OVCAR-4, in the experiment with HT-29, in the experiment on SNB-75, in the experiment on SK-MEL-5 and in the experiment with OVCAR-5 was > 50 µM (inactive) throughout. For the same compound, the GI50 in the experiment with HL-60 is > 50 µM (inactive).
On to `C=C1C(=O)OC2CC1CCC1(C)OC1CCC(C)=CCCC2(C)O` (centres undefined), for which the GI50 is 2.26 µM (inactive) in the experiment with HOP-92; 7.01 µM (inactive) in the experiment with HCC 2998; 4.06 µM (inactive) in the experiment with SK-MEL-28; 16.7 µM (inactive) in the experiment on SK-OV-3; 3.33 µM (inactive) with OVCAR-3; 1.83 µM (inactive) in the experiment with K562. For the same compound, the GI50 with UO-31 was 9.04 µM (inactive); in the experiment with Malme-3M it was 3.76 µM (inactive); in the experiment on SF-539, 4.62 µM (inactive); in the experiment on SF-295, 16.8 µM (inactive); in the experiment on NCI-H226, 3.61 µM (inactive); with OVCAR-8, 2.33 µM (inactive). Moreover, the GI50 with OVCAR-4 was 4.78 µM (inactive); in the experiment with HT-29, 4.06 µM (inactive); with SNB-75, 7.08 µM (inactive); with SK-MEL-5 it was 4 µM (inactive); with OVCAR-5, 10 µM (inactive); in the experiment on HL-60, 0.927 µM (active).
`OC[C@H]1C[C@@H]2Cc3ccccc3N2N1`: the GI50 with HOP-92, in the experiment with HCC 2998, in the experiment with SK-MEL-28, in the experiment with SK-OV-3, in the experiment with OVCAR-3 and in the experiment on K562 was > 100 µM (inactive) throughout. Further, the GI50 with Malme-3M, in the experiment on SF-539, with SF-295, in the experiment with M14, in the experiment on NCI-H226 and with OVCAR-8 was > 100 µM (inactive) each time. Moreover, the GI50 in the experiment on OVCAR-4, with HT-29, in the experiment on SNB-75, in the experiment with SK-MEL-5, in the experiment on TK-10 and with OVCAR-5 was > 100 µM (inactive) in each case. Also, the GI50 in the experiment on HL-60 was > 100 µM (inactive).
